According to patent US9952300B2, “Dynamic contrast enhanced MRI method and agents for the assessment of the macromolecular transport within pathologic tissues” (BRACCO IMAGING S.P.A., priority 2012, dated 2018):
“And” between values parts separate entries of the source, which are not always exact repeats. Equal entries are not always repeated.

Experiments:
Human Serum Albumin = Human Serum Albumin (Homo sapiens, UniProt P02768); settings: literature; cited from earlier work
[1] = system: PC-3 human prostate adenocarcinoma tumor; test: DCE-MRI of contrast agent kinetics in PC-3 tumors of Axitinib- or vehicle-treated mice (Example 3); assay type: in vivo, NCR athymic nude mice; settings: contrast agent 100 μmol/kg i.v., one value per animal
Source text: The comparative test has been performed using NCR athymic nude mice implanted with PC-3 cells (a human prostate cancer line) and treated with Axitinib®, a VEGFRs inhibitor, (to modulate the tumor vascular permeability) by a protocol which timing is for instance schematized in FIG. 1. Scope of the test was to compare the image-based analysis of the albumin distribution in a human tumor model as extracted from the analysis of a time-serie of MRI images (with spatial resolution of around 110 μm) acquired with the method of the invention after injection of B22956/1 as contrast agent, and the distribution of FITC-BSA (Fluorescent isothiocyanate Bovine Serum Albumin) albumin inside and outside vessels histologically determined from fluorescent microscopy images on a scale of microns.
In particular, the trans-endothelial permeability (K^Trans) and the fractional plasma volume (fPV) were calculated from dynamic MR data by application of a bi-compartmental pharmacokinetic model, while the Initial Area Under the Curve (IAUCT) was calculated in several time windows, typically comprised between the contrast agent administration and the end of the MRI acquisition. The macromolecular penetration in tumors was, then, probed by fluorescently labelled Bovine Serum Albumin administered via tail vein after the last MRI session. Microscopic images were used to quantify the percentage of area stained by fluorescent albumin in the tumor, as a measure of the blood vessel density, using an automatic thresholding method. The albumin extravasation in the tumor extravascular space was assessed based on the fluorescence found out of the blood vessels from histological samples taken from both of tumor rim and core, for instance as schematized in FIG. 2. In particular, the albumin florescence was averaged over all pixels at a given distance from the nearest vessel and stored as a function of distance from the vessels walls, by use of an optimized procedure, for instance schematized in FIG. 3, providing both a quantification of the availability of the albumin in the extravascular space of the concerned tumor, namely the amount of the extravasated FITC-Albumin, and the decay of its concentration over the distance x from a nearest vessel, or, in other words, its actual distribution and dilution within the extracellular spaces (for instance as schematized in FIG. 4).
Human prostate adenocarcinoma cells (PC-3) were supplied by ATCC (American Type Culture Collection) and grown in Hams F-12 medium supplemented with 10% foetal bovine serum, 2 mM glutamine, 100 IU/mL penicillin and 100 μg/mL streptomycin (all from Lonza, Verviers, Belgium). […] Tumour development was followed by palpation and measured by calliper every 2-3 days until the end of the experiment. […]

tumor tissues = settings: literature (Maeda et al.); cited from earlier work

Chain of Human Serum Albumin (P02768 25-609): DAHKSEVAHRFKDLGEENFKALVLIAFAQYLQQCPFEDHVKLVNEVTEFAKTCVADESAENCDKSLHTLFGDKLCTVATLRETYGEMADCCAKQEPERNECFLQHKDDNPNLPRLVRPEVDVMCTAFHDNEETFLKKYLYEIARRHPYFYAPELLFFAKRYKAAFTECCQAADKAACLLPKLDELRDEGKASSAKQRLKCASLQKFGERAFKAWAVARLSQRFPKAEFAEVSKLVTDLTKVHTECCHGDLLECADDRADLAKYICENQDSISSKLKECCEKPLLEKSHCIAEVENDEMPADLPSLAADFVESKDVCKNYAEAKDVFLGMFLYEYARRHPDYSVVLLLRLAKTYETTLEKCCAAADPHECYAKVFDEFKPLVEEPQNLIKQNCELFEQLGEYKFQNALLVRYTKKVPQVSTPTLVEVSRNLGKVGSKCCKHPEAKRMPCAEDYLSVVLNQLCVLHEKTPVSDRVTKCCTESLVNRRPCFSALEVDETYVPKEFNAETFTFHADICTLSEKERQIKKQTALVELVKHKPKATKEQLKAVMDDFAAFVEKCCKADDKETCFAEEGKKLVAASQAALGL

## O=C([O-])CN(CCN(CC(=O)[O-])C[C@H](COP(=O)([O-])OC1CCC(c2ccccc2)(c2ccccc2)CC1)N(CC(=O)[O-])CC(=O)[O-])CC(=O)[O-].[Gd+3].[H+].[H+].[H+] [Gadofosveset, reference compound]
Human Serum Albumin
  non-covalent binding with Human Serum Albumin: about 90%

## CNC[C@H](O)[C@@H](O)[C@H](O)[C@H](O)CO.CNC[C@H](O)[C@@H](O)[C@H](O)[C@H](O)CO.O=C([O-])CN(CCN(CC(=O)[O-])CC(=O)O)CCN(CC(=O)O)C(COCc1ccccc1)C(=O)[O-].[Gd+3] (stereo not shown) [MultiHance, reference compound]
[1]; tumor core
  kTrans (Transfer Constant): 3.63 mL\(min × g) × 100 and 1.02 mL\(min × g) × 100 and 2.86 mL\(min × g) × 100 and 3.57 mL\(min × g) × 100 and 2.54 mL\(min × g) × 100 and 1.53 mL\(min × g) × 100 and 0.82 mL\(min × g) × 100 and 3.15 mL\(min × g) × 100 and 4.46 mL\(min × g) × 100 and 1.08 mL\(min × g) × 100 and 1.63 mL\(min × g) × 100 and 3.19 mL\(min × g) × 100 and 2.6 mL\(min × g) × 100 and 4.07 mL\(min × g) × 100 and 1.06 mL\(min × g) × 100
[1]; tumor rim
  kTrans (Transfer Constant): 8.14 mL\(min × g) × 100 and 3.59 mL\(min × g) × 100 and 3.81 mL\(min × g) × 100 and 4.51 mL\(min × g) × 100 and 4.22 mL\(min × g) × 100 and 4.44 mL\(min × g) × 100 and 3.23 mL\(min × g) × 100 and 4.78 mL\(min × g) × 100 and 6.14 mL\(min × g) × 100 and 1.74 mL\(min × g) × 100 and 5.23 mL\(min × g) × 100 (2×) and 5.82 mL\(min × g) × 100 and 3.76 mL\(min × g) × 100 and 2.88 mL\(min × g) × 100

B1: SMANCS (conjugate, UniProt P0A3R9 35-147, looked up)
Neocarzinostatin: AAPTATVTPSSGLSDGTVVKVAGAGLQAGTAYDVGQCAWVDTGVLACNPADFSSVTADANGSASTSLTVRRSFEGFLFDGTRWGTVDCTTAACQVGLSDAAGNGPEGVAISFN
modifications: styrene-maleic acid copolymer conjugate
Tumor tissues
  spontaneous accumulation within tumor tissues versus normal tissues and organs: up to 200 times
